Test results published in US20100215631A1, “ANTI-INFLAMMATORY COMPOSITION COMPRISING GLYCINE AND LACTOFERRIN AND THE USE THEREOF” (priority 2006, published 2010).

Key:
[1] = tested on: TNF-α producing cells; experiment: Ex-vivo ELISpot of TNF-α producing spleen cells from supplemented mice with zymosan-induced ear inflammation (Example 2); assay type: in vivo; details: 1 μg/ml LPS, after three days of oral supplementation
Protocol: The spleen was removed and pushed through a cell strainer. Red blood cell lysis was performed in 5 ml of could lysis buffer (4.15 g NH4Cl, 0.5 g KHCO3 and 18.6 mg Na2EDTA in 1 liter water at pH 7,3) for 5 minutes. Cells were washed twice in could RPMI (Invitrogen, Merelbeke, Belgium) and after centrifugation diluted to a concentration of 1.10^7 cells/ml. TNF-α producing cells were detected by ELISpot assay in the absence or presence of 1 μg/ml lipopolysaccharide (Sigma) (example 2).
Spleen cells were collected from mice with a zymosan-induced inflammation in the ear after three days of oral supplementation with water (=control), lactoferrin (LF), glycine or a combination of LF and glycine. The number of TNF-α producing cells was determined using an ELISpot assay. LF and glycine inhibit the LPS stimulated number of TNF producing cells by 92% and 97% respectively (back to not zymosan treated control levels). The combination of glycine and lactoferrin inhibited the number of TNF-α positive cells 50% below the […] injected control. This unexpected high rate of inhibition makes the combination of glycine with lactoferrin an excellent choice for the treatment of inflammatory diseases.

[2] = tested on: Balb/C mice; experiment: Zymosan-induced ear swelling in an inflammatory mouse model (Example 1); assay type: in vivo; details: daily gavage 0.1 mg lactoferrin and/or 50 mg glycine, versus non-supplemented mice
Protocol: Balb/C mice (8 weeks of age, Charles River, Maastricht, The Netherlands) were randomly assigned two control and three test groups and supplemented daily for three days with 0.1 mg lactoferrin (DMV, Veghel, The Netherlands), 50 mg glycine (Sigma, Zwijndrecht, The Netherlands) or a combination of both components (test groups 3, 4 and 5 respectively) or vehicle (control groups 1 and 2) was administered by gavage. At day two of the supplementation ear thickness was measured using a micrometer (Mitutoyo Digimatic, Veenendaal, The Netherlands) Subsequently 25 μl 0.5% zymosan (Sigma) in PBS (group 2-5) or vehicle (group 1) was injected subcutaneously in both ears. Ear thickness was measured 3, 6 and 24 hours (example 1) after injection after which the animals were sacrificed.
In mice injected in the ear with zymosan, lactoferrin (LF) and glycine (Gly) supplemented mice show a highest decrease in ear swelling when compared to non-supplemented mice, see Table 1. A clear synergistic effect of LF and Gly is observed.

## NCC(=O)O [Glycine, glycine]
[1]
  Inhibition of the LPS stimulated number of TNF producing cells: 97%
[2]; 3 hrs after zymosan injection in ears
  Decrease in ear swelling: 10 ± 16
[2]; 6 hrs after zymosan injection in ears
  Decrease in ear swelling: 28 ± 20
